Source: PubChem BioAssay AID248 (DTP/NCI, 2004)
Several values for one entry are separate records, joined by “and”; a condition that tells them apart may be missing. Equal entries are not always repeated. Inconclusive results and toxic doses are left out.

Test system: L1210 leukemia ip in BDF1 mice, survival T/C
Assay: NCI In Vivo Anticancer Drug Screen. Data for tumor model L1210 Leukemia (intraperitoneal) in B6D2F1 (BDF1) mice
Details: endpoint: mean survival time, higher = longer survival
Summary of the method: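 Ratio derived from survival: compound-dosed mice over vehicle-dosed mice, all bearing a transplantable tumor.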

[1] = dose: 100.0 mg/kg/injection, schedule: Q04DX003 (ip), vehicle: Klucel (hydroxypropylcellulose) (HPC)
[2] = dose: 200.0 mg/kg/injection, schedule: Q04DX003 (ip), vehicle: Klucel (hydroxypropylcellulose) (HPC)
[3] = dose: 100.0 mg/kg/injection, schedule: Q01DX001 (ip), vehicle: saline
[4] = dose: 200.0 mg/kg/injection, schedule: Q01DX001 (ip), vehicle: saline
[5] = dose: 400.0 mg/kg/injection, schedule: Q01DX001 (ip), vehicle: saline
[6] = dose: 400.0 mg/kg/injection, schedule: Q04DX003 (ip), vehicle: Klucel (hydroxypropylcellulose) (HPC)
[7] = dose: 100.0 mg/kg/injection, schedule: Q04DX003 (ip), vehicle: saline with Tween-80
[8] = dose: 200.0 mg/kg/injection, schedule: Q04DX003 (ip), vehicle: saline with Tween-80
[9] = dose: 400.0 mg/kg/injection, schedule: Q04DX003 (ip), vehicle: saline with Tween-80
[10] = dose: 100.0 mg/kg/injection, schedule: Q01DX009 (ip), vehicle: Klucel (hydroxypropylcellulose) (HPC)
[11] = dose: 200.0 mg/kg/injection, schedule: Q01DX009 (ip), vehicle: Klucel (hydroxypropylcellulose) (HPC)
[12] = dose: 400.0 mg/kg/injection, schedule: Q01DX009 (ip), vehicle: Klucel (hydroxypropylcellulose) (HPC)
[13] = dose: 6.25 mg/kg/injection, schedule: Q04DX002 (ip), vehicle: saline with Tween-80
[14] = dose: 12.5 mg/kg/injection, schedule: Q04DX002 (ip), vehicle: saline with Tween-80
[15] = dose: 25.0 mg/kg/injection, schedule: Q04DX002 (ip), vehicle: saline with Tween-80
[16] = dose: 100.0 mg/kg/injection, schedule: Q01DX001 (ip), vehicle: saline with Tween-80
[17] = dose: 200.0 mg/kg/injection, schedule: Q01DX001 (ip), vehicle: saline with Tween-80
[18] = dose: 50.0 mg/kg/injection, schedule: Q01DX001 (ip), vehicle: saline
[19] = dose: 100.0 mg/kg/injection, schedule: Q01DX001 (ip), vehicle: Klucel (hydroxypropylcellulose) (HPC)
[20] = dose: 200.0 mg/kg/injection, schedule: Q01DX001 (ip), vehicle: Klucel (hydroxypropylcellulose) (HPC)
[21] = dose: 400.0 mg/kg/injection, schedule: Q01DX001 (ip), vehicle: Klucel (hydroxypropylcellulose) (HPC)

SMILES: O=NN(CC(=O)O)C(c1ccccc1)(c1ccccc1)c1ccccc1Cl
- T/C [1]: 95 % of control
- T/C [2]: 93 % of control

SMILES: O=C(NCCCl)NC1OC(CO)C(O)C(O)C1O (stereo not drawn)
- T/C [3]: 107 % of control
- T/C [4]: 101 % of control
- T/C [5]: 96 % of control

SMILES: O=C(O)c1cccc(F)c1.[Ni]
- T/C (dose: 25.0 mg/kg/injection, schedule: Q04DX002 (ip), vehicle: gum acacia): 100 % of control
- T/C (dose: 50.0 mg/kg/injection, schedule: Q04DX002 (ip), vehicle: gum acacia): 103 % of control
- T/C (dose: 100.0 mg/kg/injection, schedule: Q04DX002 (ip), vehicle: gum acacia): 117 % of control

SMILES: CS(=O)(=O)OCCN(CCOS(C)(=O)=O)c1ccc(C=Nc2ccc3ccccc3c2)c(Cl)c1
- T/C [1]: 103 % of control and 107 % of control
- T/C [2]: 113 % of control
- T/C [6]: 118 % of control

SMILES: Cc1ccc(CC2CC(=O)c3ccccc3C2=O)cc1 (stereo not drawn)
- T/C [7]: 91 % of control
- T/C [8]: 91 % of control
- T/C [9]: 89 % of control

SMILES: CCOC(=O)c1ccccc1NC(=O)Nc1cc([N+](=O)[O-])ccc1F
- T/C [1]: 88 % of control
- T/C [2]: 92 % of control
- T/C [6]: 86 % of control

SMILES: C=CCNC(=S)NN
- T/C (dose: 6.25 mg/kg/injection, schedule: Q04DX003 (ip), vehicle: Klucel (hydroxypropylcellulose) (HPC)): 115 % of control
- T/C (dose: 12.5 mg/kg/injection, schedule: Q04DX003 (ip), vehicle: Klucel (hydroxypropylcellulose) (HPC)): 95 % of control

SMILES: Cc1ccc(N2C(=O)CC(NC3CCCCC3)C2=O)cc1 (stereo not drawn)
- T/C [10]: 97 % of control
- T/C [11]: 100 % of control
- T/C [12]: 97 % of control

SMILES: CN=C(N)c1ccc(N=C(N)c2ccc(N=C(N)c3ccc(N=C(O)c4cccc(C(O)=Nc5ccc(C(N)=Nc6ccc(C(N)=Nc7ccc(C(N)=NC)cc7)cc6)cc5)c4)cc3)cc2)cc1
- T/C (dose: 13.0 mg/kg/injection, schedule: Q01DX015 (ip), vehicle: water): 186 % of control

SMILES: C=CCC(Cc1ccccc1)NCC1CC1 (stereo not drawn)
- T/C [13]: 114 % of control
- T/C [14]: 104 % of control
- T/C [15]: 111 % of control

SMILES: OCC1OC(n2cnc3c(SCc4ccccc4)nc(Cl)cc32)C(O)C1O (stereo not drawn)
- T/C (dose: 100.0 mg/kg/injection, schedule: Q01DX005 (ip), vehicle: saline): 95 % of control
- T/C (dose: 200.0 mg/kg/injection, schedule: Q01DX005 (ip), vehicle: saline): 93 % of control

SMILES: O=S(=O)(CCCCCl)Nc1ccc(NS(=O)(=O)CCCCCl)cc1
- T/C [16]: 102 % of control
- T/C [7]: 97 % of control
- T/C [17]: 92 % of control
- T/C [8]: 90 % of control
- T/C (dose: 400.0 mg/kg/injection, schedule: Q01DX001 (ip), vehicle: saline with Tween-80): 92 % of control
- T/C [9]: 92 % of control

SMILES: C=COC(=O)Sc1c(Cl)c(Cl)c(Cl)c(Cl)c1Cl
- T/C [18]: 100 % of control
- T/C [3]: 97 % of control
- T/C [4]: 103 % of control
- T/C [5]: 92 % of control

SMILES: CN(C)CCCN1CCC2(CCCC(C(F)(F)F)C2)CC1 (stereo not drawn)
- T/C [18]: 104 % of control
- T/C [3]: 101 % of control
- T/C [4]: 104 % of control

SMILES: CCCCC(=O)OCC(=O)[C@]1(O)Cc2c(O)c3c(c(O)c2[C@@H](OC2CC(NC(=O)C(F)(F)F)C(O)C(C)O2)C1)C(=O)c1c(OC)cccc1C3=O (stereo partly drawn)
- T/C (dose: 7.5 mg/kg/injection, schedule: Q01DX004 (ip), vehicle: saline with Tween-80): 108 % of control and 112 % of control
- T/C (dose: 10.0 mg/kg/injection, schedule: Q01DX004 (ip), vehicle: saline with Tween-80): 117 % of control and 119 % of control and 120 % of control
- T/C (dose: 30.0 mg/kg/injection, schedule: Q01DX004 (ip), vehicle: saline with Tween-80): 166 % of control
- T/C (dose: 40.0 mg/kg/injection, schedule: Q01DX004 (ip), vehicle: other): 164 % of control and 375 % of control
- T/C (dose: 50.0 mg/kg/injection, schedule: Q01DX004 (ip), vehicle: other): 372 % of control and 470 % of control
- T/C (dose: 60.0 mg/kg/injection, schedule: Q01DX004 (ip), vehicle: other): 177 % of control and 441 % of control

SMILES: O=C(c1ccc(Br)cc1)C1C(c2ccccc2)N1C1CCCCC1 (stereo not drawn)
- T/C [1]: 98 % of control
- T/C [2]: 96 % of control
- T/C [6]: 93 % of control

SMILES: CC(=O)Nc1ccc(CCCCc2c(C)nc(NC(C)=O)[nH]c2=O)cc1
- T/C [19]: 91 % of control
- T/C [20]: 89 % of control

SMILES: NCCSC(C[N+](=O)[O-])c1ccc2c(c1)OCO2 (stereo not drawn)
- T/C [7]: 93 % of control
- T/C [8]: 98 % of control

SMILES: CC1(C)OCC(CO)(Nc2nc(N3CC3)nc(N3CC3)n2)CO1
- T/C (dose: 0.31 mg/kg/injection, schedule: Q01DX009 (ip), vehicle: saline): 105 % of control
- T/C (dose: 0.62 mg/kg/injection, schedule: Q01DX009 (ip), vehicle: saline): 111 % of control
- T/C (dose: 2.5 mg/kg/injection, schedule: Q01DX009 (ip), vehicle: saline): 152 % of control and 168 % of control
- T/C (dose: 7.5 mg/kg/injection, schedule: Q01DX009 (ip), vehicle: saline): 101 % of control

SMILES: CC(C)N=Cc1ccccc1O.CC(C)N=Cc1ccccc1O.[Zn]
- T/C (dose: 100.0 mg/kg/injection, schedule: Q01DX009 (ip), vehicle: saline sonified): 91 % of control
- T/C [1]: 88 % of control
- T/C (dose: 200.0 mg/kg/injection, schedule: Q01DX009 (ip), vehicle: saline sonified): 92 % of control
- T/C [2]: 89 % of control
- T/C (dose: 400.0 mg/kg/injection, schedule: Q01DX009 (ip), vehicle: saline sonified): 96 % of control
- T/C [6]: 93 % of control

SMILES: COC1OCCCC1OC(=O)c1ccccc1 (stereo not drawn)
- T/C [18]: 109 % of control
- T/C [3]: 103 % of control
- T/C [4]: 105 % of control
- T/C [5]: 94 % of control

SMILES: O=C1CC2(CCN(Cc3ccccc3)CC2)C(=O)N1N1CCCC1
- T/C [19]: 91 % of control
- T/C [20]: 88 % of control
- T/C [21]: 89 % of control

SMILES: O=C(CNC(=O)c1ccc(Cl)cc1)NO
- T/C [19]: 96 % of control
- T/C [20]: 102 % of control
- T/C [21]: 96 % of control

SMILES: c1ccc(C2=C(c3ccccc3)N=c3ccccc3=c3ccccc3=N2)cc1
- T/C [10]: 98 % of control
- T/C [1]: 94 % of control
- T/C [11]: 94 % of control
- T/C [2]: 94 % of control
- T/C [12]: 94 % of control
- T/C [6]: 102 % of control

SMILES: COC(=O)C1C2CC3C(OC(=O)C31C)C2I (stereo not drawn)
- T/C [3]: 90 % of control
- T/C [4]: 107 % of control
- T/C [5]: 110 % of control

SMILES: COc1ccc(-n2c(=O)c(N=Nc3ccc(Cl)cc3)c(O)n(-c3ccc(I)cc3)c2=S)cc1
- T/C (dose: 37.5 mg/kg/injection, schedule: Q01DX001 (ip), vehicle: Klucel (hydroxypropylcellulose) (HPC)): 97 % of control
- T/C (dose: 75.0 mg/kg/injection, schedule: Q01DX001 (ip), vehicle: Klucel (hydroxypropylcellulose) (HPC)): 90 % of control
- T/C (dose: 150.0 mg/kg/injection, schedule: Q01DX001 (ip), vehicle: Klucel (hydroxypropylcellulose) (HPC)): 97 % of control

SMILES: CCOc1cc(-c2nc3ccccc3s2)ccc1O
- T/C [7]: 96 % of control
- T/C [8]: 101 % of control
- T/C [9]: 96 % of control

SMILES: CC(=O)Nc1ccc(OC(=O)Nc2ccc(F)c([N+](=O)[O-])c2)cc1
- T/C [10]: 118 % of control
- T/C [11]: 112 % of control

SMILES: CC(CO)(c1c[nH]c2ccccc12)c1c[nH]c2ccccc12
- T/C (dose: 50.0 mg/kg/injection, schedule: Q01DX001 (ip), vehicle: carboxymethylcellulose (CMC)): 102 % of control
- T/C (dose: 100.0 mg/kg/injection, schedule: Q01DX001 (ip), vehicle: carboxymethylcellulose (CMC)): 96 % of control
- T/C (dose: 200.0 mg/kg/injection, schedule: Q01DX001 (ip), vehicle: carboxymethylcellulose (CMC)): 96 % of control
- T/C (dose: 400.0 mg/kg/injection, schedule: Q01DX001 (ip), vehicle: carboxymethylcellulose (CMC)): 96 % of control

SMILES: CC1=C(C)CS(=O)(=O)C1
- T/C (dose: 25.0 mg/kg/injection, schedule: Q04DX003 (ip), vehicle: saline with Tween-80): 95 % of control
- T/C (dose: 50.0 mg/kg/injection, schedule: Q04DX003 (ip), vehicle: saline with Tween-80): 101 % of control
- T/C [7]: 102 % of control

SMILES: N=C(N)c1ccc(OCCCCOc2ccc(NC(=O)Nc3ccc(S(=O)(=O)F)cc3Cl)cc2)cc1
- T/C [16]: 91 % of control
- T/C [17]: 90 % of control

SMILES: O=C1Nc2ccccc2/C1=C/Cl
- T/C [13]: 96 % of control
- T/C [14]: 100 % of control
- T/C [15]: 103 % of control
